Assay results reported in ChEMBL document CHEMBL4732175, “Design and Characterization of a Pyridone-Containing EZH2 Inhibitor Phosphate Prodrug” (J Med Chem, 2021).
Values after ≈ are worked out from the molar mass of the structure shown. Active and inactive are the calls of the source. The rule behind the calls is not given here.

Assays:
[1] = target: T1, Histone-lysine N-methyltransferase EZH2 (Homo sapiens, UniProt Q15910); test: Inhibition of wild type EZH2 (unknown origin)
[2] = Distribution coefficient, log D of compound; type: physicochemical; conditions: octanol/water
[3] = Apparent solubility of the compound; type: physicochemical
[4] = Drug metabolism in mouse plasma assessed as 5,8-dichloro-2-((4,6-dimethyl-2-oxo-1,2-dihydropyridin-3-yl)methyl)-7-(3,5-dimethylisoxazol-4-yl)-3,4-dihydroisoquinolin-1(2H)-one formation at 30 to 120 mg/kg, po BID; type: ADME, organism-based; conditions: in vivo, dose 30-120 mg/kg
[5] = system: KARPAS-422; test: Antitumor activity against human KARPAS-422 cells xenografted in mouse assessed as inhibition of tumor growth inhibition at 60 mg/kg/day dosed via MC formulation for 30 days; type: functional; conditions: KARPAS-422, 720 h, time 30 day, read-out: TGI
[6] = system: KARPAS-422; test: Antitumor activity against human KARPAS-422 cells xenografted in mouse assessed as inhibition of tumor growth inhibition at 240 mg/kg/day dosed via MC formulation for 30 days; type: functional; conditions: KARPAS-422, 720 h, time 30 day, read-out: TGI
[7] = Chemical stability in simulated intestinal fluid at pH 6.8; type: physicochemical
[8] = system: KARPAS-422; test: Antitumor activity against human KARPAS-422 cells xenografted in mouse assessed as inhibition of tumor growth inhibition at 147 mg/kg/day dosed via MC formulation for 30 days and measured up to 40 days after dosing cessation; type: functional, organism-based; conditions: time 30.0 day
[9] = Chemical stability in simulated gastric fluid at pH 1.2; type: physicochemical
[10] = system: KARPAS-422; test: Antitumor activity against human KARPAS-422 cells xenografted in mouse assessed as inhibition of tumor growth inhibition at 60 to 240 mg/kg/day dosed via MC formulation for 30 days; type: functional, organism-based; conditions: dose 60-240 mg/kg/day, time 30.0 day
[11] = system: KARPAS-422; test: Antitumor activity against human KARPAS-422 cells xenografted in mouse assessed as inhibition of tumor growth inhibition at 240 mg/kg/day dosed via SEDDS formulation for 30 days; type: functional, organism-based; conditions: time 30.0 day
[12] = system: KARPAS-422; test: Antitumor activity against human KARPAS-422 cells xenografted in mouse assessed as inhibition of tumor growth inhibition at 120 mg/kg/day dosed via MC formulation for 30 days; type: functional; conditions: KARPAS-422, 720 h, time 30 day, read-out: TGI
[13] = Drug metabolism in rat plasma assessed as 5,8-dichloro-2-((4,6-dimethyl-2-oxo-1,2-dihydropyridin-3-yl)methyl)-7-(3,5-dimethylisoxazol-4-yl)-3,4-dihydroisoquinolin-1(2H)-one formation at 2000 mg/kg/day, po; type: ADME, organism-based; conditions: in vivo
[14] = Solubility in 0.5% MC formulation contained 1 equivalent of NaOH; type: physicochemical; conditions: 0.5% MC formulation containing 1 equivalent of NaOH
[15] = Drug level in rat plasma at 2000 mg/kg/day, po; type: ADME, organism-based; conditions: in vivo
[16] = Drug level in mouse plasma at 30 to 120 mg/kg, po BID; type: ADME, organism-based; conditions: in vivo, dose 30-120 mg/kg
[17] = system: KARPAS-422; test: Antitumor activity against human KARPAS-422 cells xenografted in mouse assessed as inhibition of tumor growth inhibition at 240 mg/kg/day dosed via SEDDS formulation for 30 days; conditions: KARPAS-422, 720 h, read-out: TGI
[18] = Permeability in MDCK cells; type: ADME, cell-based, Canis lupus familiaris; conditions: dog, read-out: permeability
[19] = Drug level in mouse plasma at 120 mg/kg, po BID dosed using SEDDS formulation; type: ADME, organism-based; conditions: in vivo
[20] = system: KARPAS-422; test: Inhibition of cell proliferation in human KARPAS-422 cells; type: functional, cell-based
[21] = target: T1, Histone-lysine N-methyltransferase EZH2; test: Inhibition of wild type EZH2 in human KARPAS-422 cells assessed as effect on H3K27Me3 levels; type: cell-based
[22] = target: Histone-lysine N-methyltransferase EZH2 (Homo sapiens, UniProt Q15910, Y641N); test: Inhibition of wild type EZH2 Y641N mutant (unknown origin)
[23] = Thermodynamic solubility in 0.5% MC/0.1% polysorbate 80 aqueous vehicle; type: physicochemical; conditions: read-out: Therm_solubility
[24] = Intrinsic clearance in human liver microsomes; type: ADME, Microsome; conditions: read-out: CLH

T1 sequence (Q15910 whole entry): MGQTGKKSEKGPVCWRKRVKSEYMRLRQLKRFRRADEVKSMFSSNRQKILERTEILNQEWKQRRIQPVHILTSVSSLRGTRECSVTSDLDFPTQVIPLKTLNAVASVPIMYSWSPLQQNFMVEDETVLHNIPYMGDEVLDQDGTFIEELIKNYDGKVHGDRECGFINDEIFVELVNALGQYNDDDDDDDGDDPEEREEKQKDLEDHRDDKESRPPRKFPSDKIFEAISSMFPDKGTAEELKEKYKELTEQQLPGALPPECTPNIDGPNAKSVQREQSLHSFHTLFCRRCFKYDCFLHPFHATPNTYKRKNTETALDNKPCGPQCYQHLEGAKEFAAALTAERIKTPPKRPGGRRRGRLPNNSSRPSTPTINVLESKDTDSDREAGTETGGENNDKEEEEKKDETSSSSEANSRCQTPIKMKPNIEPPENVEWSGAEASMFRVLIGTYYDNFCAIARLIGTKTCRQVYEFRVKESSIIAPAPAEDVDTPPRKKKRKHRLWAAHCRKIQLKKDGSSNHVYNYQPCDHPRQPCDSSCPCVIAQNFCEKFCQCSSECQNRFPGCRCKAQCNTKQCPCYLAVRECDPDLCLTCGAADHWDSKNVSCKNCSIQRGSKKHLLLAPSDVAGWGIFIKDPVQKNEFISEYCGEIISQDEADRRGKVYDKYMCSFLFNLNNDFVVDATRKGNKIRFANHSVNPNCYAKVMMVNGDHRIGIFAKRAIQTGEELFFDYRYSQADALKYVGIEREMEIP
Sequence of Histone-lysine N-methyltransferase EZH2 (Homo sapiens, UniProt Q15910, Y641N) (Q15910 whole entry Y641N): as the sequence (Q15910 whole entry) above, with Y641N counted along it

## Cc1cc(C)c(CN2CCc3c(Cl)cc(-c4c(C)noc4C)c(Cl)c3C2=O)c(=O)[nH]1
[1]
  Ki: 1 nM
[2]
  logD: 3.1
[3]
  solubility: 140 µM (≈ 62.5 µg/mL)

## Cc1cc(C)n(COP(=O)(O)O)c(=O)c1CN1CCc2c(Br)cc(-c3c(C)nnn3C)c(Cl)c2C1=O
[4]
  Drug metabolism: Dose-dependent effect
[5]
  inhibition in vivo at 60 mg/kg/day: 37%
[6]
  inhibition in vivo at 240 mg/kg/day: 121%
[7]
  Stabilty: 8 h
[8]
  TGI: Active
[9]
  Stabilty: 8 h
[10]
  TGI: Dose-dependent effect
[11]
  TGI: Active
[12]
  inhibition in vivo at 120 mg/kg/day: 59%
[13]
  Drug metabolism: Metabolite_Detected
[14]
  solubility: 21600 µM
[15]
  Drug uptake: Not Active
[16]
  Cp: < 1 ng/mL

## Cc1cc(C)c(CN2CCc3c(Br)cc(-c4c(C)nnn4C)c(Cl)c3C2=O)c(=O)[nH]1
[1]
  Ki: 2 nM
[2]
  logD: 2.4
[17]
  inhibition in vivo at 240 mg/kg/day: 98%
[18]
  Papp: 9 ×10⁻⁶ cm/s
[19]
  Drug uptake: Active
[20]
  IC50: 36 nM
[21]
  IC50: 30 nM
[3]
  solubility: 338 µM (≈ 166 µg/mL)
[22]
  Ki: 7 nM
[23]
  solubility thermodynamic: 41 µM (≈ 20.1 µg/mL)
[24]
  microsomal CLint: 27.8 µL/min/mg
